Measured values: US4605744A, “Imidazole derivatives” (Hoffmann-La Roche Inc., priority 1985, dated 1986)
Structures can show the parent of a compound that is named as a salt.

Key:
Test in all cases: In vitro antibacterial activity (MIC)
Type in all cases: cell-based
K. pneumoniae 4964 = settings: Klebsiella pneumoniae, 4964, K. pneumoniae 4964; read-out: MIC
In short: (§1)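 Overnight cultures, diluted 10^-2, were added at 1.5 μl per well to twofold drug series (128–0.008 μg/ml) in Mueller-Hinton broth.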

C. freundii 8ASM = settings: Citrobacter freundii, 8ASM, C. freundii 8ASM; read-out: MIC
In short: as §1

E. aerogenes 8 = settings: Klebsiella aerogenes; E. aerogenes 8; read-out: MIC
In short: as §1

P. vulgaris ATCC 6380 = settings: Proteus vulgaris, ATCC6380, P. vulgaris ATCC 6380; read-out: MIC
In short: as §1

S. marcescens 5805 = settings: Serratia marcescens, 5805, S. marcescens 5805; read-out: MIC
In short: as §1

S. marcescens S2 = settings: Serratia marcescens; S. marcescens S2; read-out: MIC
In short: as §1

S. aureus Smith = settings: Staphylococcus aureus, S. aureus Smith; read-out: MIC
In short: as §1

E. cloacae 9570A = settings: Enterobacter cloacae, read-out: MIC
In short: as §1

K. pneumoniae 8357 = settings: Klebsiella pneumoniae, 8357, K. pneumoniae 8357; read-out: MIC
In short: as §1

E. coli 4 = settings: Escherichia coli, 4, E. coli 4; read-out: MIC
In short: as §1

K. pneumoniae 35 = settings: Klebsiella pneumoniae; K. pneumoniae 35; read-out: MIC
In short: as §1

P. aeruginosa Stone 130 = settings: Pseudomonas aeruginosa, STONE130, read-out: MIC
In short: as §1

S. aureus Giorgio = settings: Staphylococcus aureus, S. aureus Giorgio; read-out: MIC
In short: as §1

P. mirabilis 503-1136 = settings: Proteus mirabilis, 5031136, P. mirabilis 503-1136; read-out: MIC
In short: as §1

S. faecalis C1 = settings: Enterococcus faecalis; S. faecalis C1; read-out: MIC
In short: as §1

E. aerogenes 503-478 = settings: Klebsiella aerogenes, 503478, E. aerogenes 503-478; read-out: MIC
In short: as §1

S. marcescens S3 = settings: Serratia marcescens; S. marcescens S3; read-out: MIC
In short: as §1

E. coli 503-455 = settings: Escherichia coli, 503455, E. coli 503-455; read-out: MIC
In short: as §1

S. pyogenes 4 = settings: Streptococcus pyogenes, 4, S. pyogenes 4; read-out: MIC
In short: as §1

P. mirabilis 190 = settings: Proteus mirabilis, 190, P. mirabilis 190; read-out: MIC
In short: as §1

E. aerogenes 83 = settings: Klebsiella aerogenes, 83, E. aerogenes 83; read-out: MIC
In short: as §1

K. pneumoniae 5096 = settings: Klebsiella pneumoniae; K. pneumoniae 5096; read-out: MIC
In short: as §1

P. rettgeri ATCC 9250 = settings: Providencia rettgeri, ATCC9250, P. rettgeri ATCC 9250; read-out: MIC
In short: as §1

P. mirabilis 620A = settings: Proteus mirabilis, 620A, P. mirabilis 620A; read-out: MIC
In short: as §1

P. aeruginosa POW 151 = settings: Pseudomonas aeruginosa, POW151
In short: as §1

K. pneumoniae HE7 = settings: Klebsiella pneumoniae; K. pneumoniae HE7; read-out: MIC
In short: as §1

C. freundii CDC6 = settings: Citrobacter freundii, CDC6, C. freundii CDC6; read-out: MIC
In short: as §1

S. pneumoniae 6301 = settings: Streptococcus pneumoniae, 6301, S. pneumoniae 6301; read-out: MIC
In short: as §1

P. vulgaris 101 = settings: Proteus vulgaris, 101, P. vulgaris 101; read-out: MIC
In short: as §1

S. aureus 1059B = settings: Staphylococcus aureus, read-out: MIC
In short: as §1

P. aeruginosa 503-56 = settings: Pseudomonas aeruginosa, 50356, P. aeruginosa 503-56; read-out: MIC
In short: as §1

S. marcescens S1 = settings: Serratia marcescens, S1, S. marcescens S1; read-out: MIC
In short: as §1

E. cloacae 6951 = settings: Enterobacter cloacae, 6951, E. cloacae 6951; read-out: MIC
In short: as §1

S. typhi P58A = settings: Salmonella enterica, TYPHI
In short: as §1

P. aeruginosa 8710 = settings: Pseudomonas aeruginosa; P. aeruginosa 8710; read-out: MIC
In short: as §1

E. cloacae 24 = settings: Enterobacter cloacae, 24, E. cloacae 24; read-out: MIC
In short: as §1

K. pneumoniae 503-964 = settings: Klebsiella pneumoniae, 503964; K. pneumoniae 503-964; read-out: MIC
In short: as §1

S. pyogenes 503-782 = settings: Streptococcus pyogenes, 503782; S. pyogenes 503-782; read-out: MIC
In short: as §1

S. marcescens S4 = settings: Serratia marcescens, S4, S. marcescens S4; read-out: MIC
In short: as §1

S. pneumoniae SC = settings: Streptococcus pneumoniae, read-out: MIC
In short: as §1

E. coli R-563 = settings: Escherichia coli, R563, E. coli R-563; read-out: MIC
In short: as §1

S. marcescens SM = settings: Serratia marcescens, read-out: MIC
In short: as §1

E. coli 387-1 = settings: Escherichia coli, 3871, E. coli 387-1; read-out: MIC
In short: as §1

S. marcescens S147 = settings: Serratia marcescens; S. marcescens S147; read-out: MIC
In short: as §1

K. pneumoniae A = settings: Klebsiella pneumoniae, K. pneumoniae A; read-out: MIC
In short: as §1

CC1(C)S[C@@H]2[C@H](N=CN3CCC(C4=NCCN4)CC3)C(=O)N2[C@H]1C(=O)O [L, [2S-(2alpha,5alpha,6beta)]-6-[[[4-(4,5-dihydro-1H-imidazol-2-yl)-1-piperidinyl]methylene]amino]-3,3-dimethyl-7-oxo-4-thia-1-azabicyclo[3.2.0]heptane-2-carboxylic acid hydrochloride]
MIC (K. pneumoniae 4964): 64 µg/mL | MIC (C. freundii 8ASM): 0.25 µg/mL | MIC (E. aerogenes 8): 32 µg/mL | MIC (P. vulgaris ATCC 6380): 0.25 µg/mL | MIC (S. marcescens 5805): 8 µg/mL | MIC (S. marcescens S2): 0.5 µg/mL | MIC (S. aureus Smith): 4 µg/mL | MIC (E. cloacae 9570A): 2 µg/mL | MIC (K. pneumoniae 8357): 2 µg/mL | MIC (E. coli 4): 0.125 µg/mL | MIC (K. pneumoniae 35): 2 µg/mL | MIC (P. aeruginosa Stone 130): > 128 µg/mL | MIC (S. aureus Giorgio): 2 µg/mL | MIC (P. mirabilis 503-1136): 8 µg/mL | MIC (S. faecalis C1): 32 µg/mL | MIC (E. aerogenes 503-478): 8 µg/mL | MIC (S. marcescens S3): 0.5 µg/mL | MIC (E. coli 503-455): 4 µg/mL | MIC (S. pyogenes 4): 0.5 µg/mL | MIC (P. mirabilis 190): 0.5 µg/mL | MIC (E. aerogenes 83): 2 µg/mL | MIC (K. pneumoniae 5096): 64 µg/mL | MIC (P. rettgeri ATCC 9250): 1 µg/mL | MIC (P. mirabilis 620A): > 128 µg/mL | MIC (P. aeruginosa POW 151): > 128 µg/mL | MIC (K. pneumoniae HE7): > 128 µg/mL | MIC (C. freundii CDC6): 0.5 µg/mL | MIC (S. pneumoniae 6301): 0.5 µg/mL | MIC (P. vulgaris 101): 32 µg/mL | MIC (S. aureus 1059B): 64 µg/mL | MIC (P. aeruginosa 503-56): 64 µg/mL | MIC (S. marcescens S1): 0.5 µg/mL | MIC (E. cloacae 6951): 8 µg/mL | MIC (S. typhi P58A): 0.5 µg/mL | MIC (P. aeruginosa 8710): 128 µg/mL | MIC (E. cloacae 24): 1 µg/mL | MIC (K. pneumoniae 503-964): 2 µg/mL | MIC (S. pyogenes 503-782): 32 µg/mL | MIC (S. marcescens S4): 2 µg/mL | MIC (S. pneumoniae SC): 1 µg/mL | MIC (E. coli R-563): 0.25 µg/mL | MIC (S. marcescens SM): 1 µg/mL | MIC (E. coli 387-1): 0.25 µg/mL | MIC (S. marcescens S147): 1 µg/mL | MIC (K. pneumoniae A): 0.25 µg/mL

CC1(C)S[C@@H]2[C@H](N=CN3CCC(CC4=NCCN4)CC3)C(=O)N2[C@H]1C(=O)O [M, [2S-(2alpha,5alpha,6beta)]-6-[[[4-[(4,5-dihydro-1H-imidazol-2-yl)methyl]-1-piperidinyl]methylene]amino]-3,3-dimethyl-7-oxo-4-thia-1-azabicyclo[3.2.0]heptane-2-carboxylic acid hydrochloride]
MIC (K. pneumoniae 4964): 2 µg/mL | MIC (C. freundii 8ASM): 0.062 µg/mL | MIC (E. aerogenes 8): 32 µg/mL | MIC (P. vulgaris ATCC 6380): 0.25 µg/mL | MIC (S. marcescens 5805): 1 µg/mL | MIC (S. marcescens S2): 0.25 µg/mL | MIC (S. aureus Smith): 4 µg/mL | MIC (E. cloacae 9570A): 0.25 µg/mL | MIC (K. pneumoniae 8357): 1 µg/mL | MIC (E. coli 4): 0.062 µg/mL | MIC (K. pneumoniae 35): 1 µg/mL | MIC (P. aeruginosa Stone 130): > 128 µg/mL | MIC (S. aureus Giorgio): 2 µg/mL | MIC (P. mirabilis 503-1136): 8 µg/mL | MIC (S. faecalis C1): 32 µg/mL | MIC (E. aerogenes 503-478): 4 µg/mL | MIC (S. marcescens S3): 0.125 µg/mL | MIC (E. coli 503-455): 2 µg/mL | MIC (S. pyogenes 4): 1 µg/mL | MIC (P. mirabilis 190): 0.5 µg/mL | MIC (E. aerogenes 83): 2 µg/mL | MIC (K. pneumoniae 5096): > 128 µg/mL | MIC (P. rettgeri ATCC 9250): 0.5 µg/mL | MIC (P. mirabilis 620A): > 128 µg/mL | MIC (P. aeruginosa POW 151): > 128 µg/mL | MIC (K. pneumoniae HE7): > 128 µg/mL | MIC (C. freundii CDC6): 0.125 µg/mL | MIC (S. pneumoniae 6301): 1 µg/mL | MIC (P. vulgaris 101): 16 µg/mL | MIC (S. aureus 1059B): 32 µg/mL | MIC (P. aeruginosa 503-56): 32 µg/mL | MIC (S. marcescens S1): 0.25 µg/mL | MIC (E. cloacae 6951): 32 µg/mL | MIC (S. typhi P58A): 0.062 µg/mL | MIC (P. aeruginosa 8710): 64 µg/mL | MIC (E. cloacae 24): 0.5 µg/mL | MIC (K. pneumoniae 503-964): 0.25 µg/mL | MIC (S. pyogenes 503-782): 32 µg/mL | MIC (S. marcescens S4): 1 µg/mL | MIC (S. pneumoniae SC): 1 µg/mL | MIC (E. coli R-563): 0.062 µg/mL | MIC (S. marcescens SM): 0.125 µg/mL | MIC (E. coli 387-1): 0.062 µg/mL | MIC (S. marcescens S147): 0.25 µg/mL | MIC (K. pneumoniae A): 0.062 µg/mL
